According to US20110003777A1, “Methods of Treatment Employing Prolonged Continuous Infusion of Belinostat” (TOPOTARGET A/S, priority 2008, published 2011):

Assays:
patients = conditions: 30 minute intravenous bolus with standard dose carboplatin or paclitaxel (Sinha et al., 2007); cited from earlier work
[1] = system: patients with various solid-tumours; conditions: intravenous bolus over 30 minutes, 150 to 1200 mg/m^2, solid tumours (Steele et al., 2008); cited from earlier work
[2] = system: NYH: human small cell lung cancer; assay: Clonogenic assay with increasing time of exposure, NYH; type: cell-based
Source text: (§1) The data are summarised in FIG. 1, which is a graph of EC50 (μM), as determined using the clonogenic assay described above, as a function of exposure time (hours) for the four cells lines, P388 (diamonds), A2780 (circles), NYH (triangles), and L1210 (squares).

[3] = system: human patient with AML (acute myeloid leukemia); assay: Continuous intravenous infusion in a human subject with AML; type: in vivo; conditions: for Blasts (absolute) / WBC / Platelets: peripheral blood
Source text: The patient was a person with AML (acute myeloid leukemia). The patient had arterial hypertension since 1986, hypothyroidism since 1997 (treated with levothyroxin), anorexia, an enlarged spleen, night sweats since 2007, allergic exanthema since January 2008, and conjunctival hemorrhage from February 2007. AML was first diagnosed in December 2006. Prior treatment included four courses of decitabine from July 2007 to November 2007.

[4] = reported; cited from earlier work
[5] = water at physiological pH; cited from earlier work
[6] = system: P388: mouse lymphocytic leukemia; assay: Clonogenic assay with increasing time of exposure, P388; type: cell-based
Source text: as §1

[7] = system: A2780: human ovarian cancer; assay: Clonogenic assay with increasing time of exposure, A2780; type: cell-based
Source text: as §1

[8] = system: L1210: mouse lymphocytic leukemia; assay: Clonogenic assay with increasing time of exposure, L1210; type: cell-based
Source text: as §1

[9] = Day 15, before starting the 2nd cycle

SMILES: O=C(/C=C/c1cccc(S(=O)(=O)Nc2ccccc2)c1)NO [Belinostat™, (E)-N-hydroxy-3-(3-phenylsulfamoyl-phenyl)-acrylamide]
- maximum tolerated dose (patients): 1000 mg/m^2/d
- maximum tolerated dose [1]: 1000 mg/m^2
- EC50 values ([2]; longer incubation (≧16 hours)): markedly reduced
- activity in clonogenic assay ([2]; short incubation times): weak activity
- tolerability of first infusion ([3]; 800 mg/m^2/d continuous i.v. infusion, first cycle): tolerated well
- time of infusion at interruption due to fever (39° C.), dyspnea, and cough ([3]; 800 mg/m^2/d, first cycle, planned 48 hours): 37 h
- tolerability of second cycle ([3]; 800 mg/m^2/d, full 48 hour cycle on Day 15 and Day 16): no reports of serious adverse events
- Platelet counts following second cycle ([3]; after second 48 hour cycle): moderately depressed
- tolerability and efficacy of continuous infusion ([3]; human, continuous infusion): feasible, well tolerated and efficacious
- Blasts (absolute) ([3]; 24 h, pre-treatment 2.4): 5e+08 L⁻¹
- WBC ([3]; 24 h, pre-treatment 3.8): 1.3e+09 L⁻¹
- Blasts (absolute) ([3]; 48 h, pre-treatment 2.4): 2e+08 L⁻¹
- WBC ([3]; 48 h, pre-treatment 3.8): 6e+08 L⁻¹
- Blasts (absolute) ([3]; Day 5): 1.6e+09 L⁻¹
- Platelets ([3]; Day 5): 8e+10 L⁻¹
- WBC ([3]; Day 5): 2.8e+09 L⁻¹
- Blasts (absolute) ([3]; Day 8): 2e+09 L⁻¹
- Platelets ([3]; Day 8): 3.9e+10 L⁻¹
- WBC ([3]; Day 8): 4.2e+09 L⁻¹
- Blasts (absolute) [3, 9]: 1.03e+10 L⁻¹
- Platelets [3, 9]: 7.3e+10 L⁻¹
- WBC [3, 9]: 1.21e+10 L⁻¹
- Blasts (absolute) ([3]; Day 19 (after 2nd cycle)): 3.8e+09 L⁻¹
- Platelets ([3]; Day 19 (after 2nd cycle)): 4.2e+10 L⁻¹
- WBC ([3]; Day 19 (after 2nd cycle)): 4.9e+09 L⁻¹
- Blasts (absolute) ([3]; Day 22): 5.6e+09 L⁻¹
- Platelets ([3]; Day 22): 3.3e+10 L⁻¹
- WBC ([3]; Day 22): 7.4e+09 L⁻¹
- Blasts (absolute) ([3]; Day 26): 1.26e+10 L⁻¹
- Platelets ([3]; Day 26): 3.4e+10 L⁻¹
- WBC ([3]; Day 26): 1.57e+10 L⁻¹
- plasma half-life [4]: 47 to 86 min
- solubility in water [5]: sparingly soluble
- EC50 values ([6]; P388, longer incubation (≧16 hours)): markedly reduced
- activity in clonogenic assay ([6]; P388, short incubation times): weak activity
- EC50 values ([7]; A2780, longer incubation (≧16 hours)): markedly reduced
- activity in clonogenic assay ([7]; A2780, short incubation times): weak activity
- EC50 values ([8]; L1210, longer incubation (≧16 hours)): markedly reduced
- activity in clonogenic assay ([8]; L1210, short incubation times): weak activity
